Measured values reported in ChEMBL document CHEMBL4602729, “O-Alkyl Hydroxamates Display Potent and Selective Antileishmanial Activity” (J Med Chem, 2020).
pIC50: −log10 of the molar value. Values belong to the compound of their own block, whether it stands above or below them. Calls of active or inactive are those of the source. The calls are words filed in the database; no cut-off is given here.

Columns and labels:
Leishmania infantum [1] = assay: Antileishmanial activity against Leishmania infantum MON-1 intracellular amastigotes infected in Swiss mouse BMDM measured after 48 hrs by Giemsa staining based optical microscopic analysis; assay type: functional, organism-based
[2] = (§1) Cytotoxicity against Swiss mouse BMDM assessed as reduction in cell viability measured after 72 hrs by tryphan blue assay; assay type: cell-based; details: Swiss, BMDM
Leishmania infantum [3] = assay: (§2) Antileishmanial activity against Leishmania infantum MON-1 promastigotes infected in BALB/c mouse assessed as reduction in spleen parasite load at 104 mg Sbv/kg, ip administered daily for 14 days starting from 28 days post infection measured post last dose by Taqman qRT-PCR analysis relative to control; assay type: functional, organism-based; design: scale not given: the % may be the effect or the level left
Leishmania infantum [4] = assay: as §2, with “liver” for “spleen”; assay type: functional, organism-based; design: scale not given: the % may be the effect or the level left
[5] = (§3) Cytotoxicity against mouse L929 cells assessed as reduction in cell viability measured after 72 hrs by tryphan blue assay; assay type: cell-based; details: L929 cells
[6] = Selectivity index, ratio of CC50 for mouse L929 cells to IC50 for Leishmania major MON-4 intracellular amastigotes; assay type: toxicity, cell-based
Leishmania donovani = assay: Antileishmanial activity against Leishmania donovani MON-2 intracellular amastigotes; assay type: functional, organism-based
Leishmania tropica = assay: Antileishmanial activity against Leishmania tropica MON-102 intracellular amastigotes; assay type: functional, organism-based
[7] = Selectivity index, ratio of CC50 for mouse L929 cells to IC50 for Leishmania donovani MON-2 intracellular amastigotes; assay type: toxicity, cell-based
[8] = Selectivity index, ratio of CC50 for mouse L929 cells to IC50 for Leishmania infantum MON-1 intracellular amastigotes infected in Swiss mouse BMDM; assay type: toxicity, cell-based
[9] = Selectivity index, ratio of CC50 for mouse L929 cells to IC50 for Leishmania tropica MON-102 intracellular amastigotes; assay type: toxicity, cell-based
Leishmania major = assay: Antileishmanial activity against Leishmania major MON-4 intracellular amastigotes; assay type: functional, organism-based
[10] = Toxicity in BALB/c mouse infected with Leishmania infantum MON-1 promastigotes assessed as change in AST level at 104 mg Sbv/kg, ip administered daily for 14 days starting from 28 days post infection using PLGA nanoparticle incorporated compound; assay type: organism-based; details: in vivo
L929 = assay: as §3; assay type: cell-based; details: l929, 72 h
BMDM = assay: as §1; assay type: cell-based; details: bmdm, 72 h
Leishmania infantum [11] = assay: Antileishmanial activity against Leishmania infantum MON-1 promastigotes assessed as reduction in parasite viability at 100 uM measured after 48 hrs by MTT assay; assay type: functional, organism-based
[12] = Leishmania infantum, MON-1, BMDM, 48 h

pIC50 (Leishmania infantum [1]; [12]): 5.44
Compound: O=C(CCCCCCN1C(=O)c2ccc(C#Cc3ccccc3)cc2S1(=O)=O)NOC(c1ccccc1)(c1ccccc1)c1ccccc1
CC50 at 72 h [2]: > 100 µM

pIC50 (Leishmania infantum [1]; [12]): 6.36
Compound: O=C(CCCCCCC(=O)Nc1ccccc1)NOCc1ccccc1
CC50 at 72 h [5]: > 100 µM | CC50 at 72 h [2]: > 100 µM | Activity (Leishmania infantum [11]): inactive

pIC50 (Leishmania infantum [1]; [12]): 4.13
Compound: O=C(CCCCCCC(=O)Nc1ccccc1)NOC(c1ccccc1)(c1ccccc1)c1ccccc1Cl
CC50 at 72 h [2]: > 100 µM

The next lines start with the compound.

Compound: Cc1ccc(C(ONC(=O)CCCCCCC(=O)Nc2ccccc2)(c2ccccc2)c2ccccc2)cc1
pIC50 (Leishmania infantum [1]; [12]): 4.16 | CC50 at 72 h [2]: < 100 µM

Compound: MEGLUMINE ANTIMONATE [listing 1 of 2 here]
Activity (Leishmania infantum [3]): 33% | Activity (Leishmania infantum [4]): 83%

Compound: COc1ccc(C(ONC(=O)CCCCCCC(=O)Nc2ccccc2)(c2ccccc2)c2ccc(OC)cc2)cc1
CC50 at 72 h [5]: < 1 µM | CC50 at 72 h [2]: < 1 µM

Compound: N=C(N)c1ccc(OCCCCCOc2ccc(C(=N)N)cc2)cc1
selectivity ratio ([6]; read-out: Ratio CC50/IC50): 6 | pIC50 (Leishmania donovani; Leishmania donovani, MON-2): 6.06 | pIC50 (Leishmania infantum [1]; [12]): 5.82 | pIC50 (Leishmania tropica; Leishmania tropica, MON-102): 6.21 | CC50 at 72 h [2]: 5 to 20 µM | selectivity ratio ([7]; read-out: Ratio CC50/IC50): 7 | selectivity ratio ([8]; read-out: Ratio CC50/IC50): 4 | selectivity ratio ([9]; read-out: Ratio CC50/IC50): 10 | pIC50 (Leishmania major; Leishmania major, MON-4): 6.02

Compound: MEGLUMINE ANTIMONATE [listing 2 of 2 here]
Ratio CC50/IC50 [6]: 3 | Activity [10]: Toxic | CC50 (L929): 273 µM | pIC50 (Leishmania donovani): 4.02 | pIC50 (Leishmania infantum [1]): 3.84 | pIC50 (Leishmania tropica): 3.91 | CC50 (BMDM): 200 to 500 µM | Ratio CC50/IC50 [7]: 3 | Ratio CC50/IC50 [8]: 2 | Ratio CC50/IC50 [9]: 2 | pIC50 (Leishmania major): 4.00

Compound: CCCCc1ccc(C(=O)NCC(=O)NOC(c2ccccc2)(c2ccccc2)c2ccccc2)cc1
CC50 at 72 h [5]: > 100 µM | pIC50 (Leishmania infantum [1]; [12]): 5.98 | CC50 at 72 h [2]: > 100 µM | Activity (Leishmania infantum [11]): inactive

Compound: O=C(CCCCCCC(=O)Nc1ccccc1)NO [VORINOSTAT]
CC50 at 72 h [2]: 5 to 20 µM
